Reference: paper PMC7211193, “Evaluation of absorption, distribution, metabolism, and excretion of [^14C]-rucaparib, a poly(ADP-ribose) polymerase inhibitor, in patients with advanced solid tumors” (Investigational New Drugs, 2019)
Several values for one entry are separate records, joined by “and”; a condition that tells them apart may be missing. Equal entries are not always repeated.

What was measured:
Type in all cases: in vivo, human
[1] = Metabolite profiling in pooled urine (LC-MS-Radiomatic); settings: for % Dose in urine: pooled urine, % of administered dose
Description: For each patient, urine samples from different collection intervals were pooled in proportion to their sample weight in order to obtain a pooled sample covering 90% of the TRA in urine. Pooled urine samples were lyophilized and then extracted at least twice with acetonitrile. The obtained supernatant was evaporated to dryness, and the dried residues were reconstituted in 20% acetonitrile in water containing 0.1% TFA. An aliquot of the supernatant was analyzed for TRA to determine extraction efficiency, and the mean recovery was ≈70%. Aliquots of the supernatants were injected into the HPLC coupled to UV and radioactive detectors to obtain metabolite profiles. The samples were also analyzed using LC-MS for metabolite identification.
(§1) Metabolite profiling and identification were performed on an LC system (Agilent) coupled to an LTQ Orbitrap mass spectrometer (Thermo Electron, Waltham, MA, USA) in combination with offline TopCount (LC-MS-TopCount) or online Radiomatic 625TR (LC-MS-Radiomatic; PerkinElmer). Proposed structures of the metabolites were based on accurate mass (<5 ppm) and comparison of mass spectral data of parent compound rucaparib and metabolite standard M324. The Radiomatic 625TR flow detector, equipped with a 200 μL flow cell, was operated using scintillation cocktail (Ultima-Flo M) delivered at a flow rate of 1 mL/min. Chromatography was done using a Phenomenex (Torrance, CA, USA) Luna Phenyl-Hexyl column (250 × 2 mm, 5 μm, 100 Å) at ambient temperature during the sample analysis. The mobile phase was (A) 0.05% TFA in water and (B) 0.05% TFA in acetonitrile, with a 0.2 mL/min flow rate. The gradient was as follows: 5% B over 2.1 min, to 20% B in 1.0 min, to 35% B in 16.9 min, isocratic at 35% B for 5 min, to 95% B over 5 min, and reduced to 5% B over 1 min, with total run time 45 min.
(§2) The abundance of unchanged rucaparib and metabolites identified in plasma, urine, and feces was determined as a percentage of the TRA in the analyzed samples. Percentage of the administered dose of rucaparib and metabolites was calculated in urine and feces (formula A). The concentration of rucaparib and its metabolites in plasma (ng Eq h/mL) was calculated based on the specific activity, TRA, and percentage of peaks (formula B). The AUC0-24h value of rucaparib and its major metabolite M324 in plasma was calculated using both Hamilton method (formula C) and linear trapezoidal method (formula D). • (A) %Doseofmetabolite=TRAinurineorfeces(dpm)÷TRAinadministereddose(dpm)×%metabolitesinmatrix • (B) Metaboliteconcentrationsinplasma(ngEq/mL)=TRAinplasma(dpm/mL)specificactivity(ngEq/dpm)×%metabolitesinthematrix • (C) Hamiltonmethod:AUC0−24h(ngEqh/mL)=concentrationinHamilton(AUC0−24h)pooledplasma(ngEq/mL)×24(h) • (D) Lineartrapezoidalmethod:AUC0−24h(ngEqh/mL)=C1h/2×1h+C1h+C4h/2×(4h−1h)+C4h+C8h/2×(8h−4h)+C8h+C24h/2×(24h−8h)

[2] = Metabolite profiling in pooled feces (LC-MS-Radiomatic); settings: for % Dose in feces: pooled fecal homogenate, % of administered dose
Description: For each patient, homogenized feces samples from different collection intervals were pooled in proportion to their sample weight in order to obtain a pooled sample covering 90% of the TRA recovered in feces. Aliquots of the pooled fecal samples were extracted at least twice with acetonitrile. The obtained supernatant was evaporated. The dried residues were reconstituted in 40% DMSO in water to obtain maximum recovery. An aliquot of the supernatant was analyzed for TRA to determine extraction efficiency, and the mean recovery was ≈75%. Aliquots of the supernatants were injected into the HPLC coupled to UV and radioactive detectors to obtain metabolite profiles. The sample supernatants were also analyzed using LC-MS to identify metabolites.
as §1, §2

[3] = Metabolite identification by LC-MS/MS in plasma, urine and feces; settings: F feces, P plasma, U urine
Description: as §1
The LTQ Orbitrap mass spectrometer was equipped with an electrospray ionization interface and operated in positive ionization mode for metabolite profiling and identification. Mass spectra were acquired in full scan (MS) (m/z 150–1500) and data-dependent scan modes. Mass spectrometer parameter settings were: spray voltage, +5.0 kV; capillary temperature, 350 °C; sheath gas, 80 (arbitrary unit); auxiliary gas, 30 (arbitrary unit); activation Q, 0.25; activation time, 30 msec; resolution, 7500; and collision energy, 35 eV.
The structures of the metabolites were identified by LC-MS/MS based on comparisons of mass spectral fragmentation patterns with those produced by the parent compound. Further confirmation of the identities of the metabolites was based on the elemental composition determined from accurate mass analyses using an Orbitrap high-resolution mass spectrometer.
The structures of the major metabolites found in plasma, urine, and feces were also confirmed by comparisons with the synthetic reference standard M324.

[4] = N = 6, mean ± SD, listed as rucaparib

For `CNCc1ccc(-c2[nH]c3cc(F)cc4c3c2CCNC4=O)cc1` [Rucaparib, rucaparib], the “% of dose in pooled urine, Patient 01” value ([1]; Patient 01) was 14.3 % dose, the “% of dose in pooled urine, Patient 03” value ([1]; Patient 03) was 5.03 % dose and the “% of dose in pooled urine, Patient 05” value ([1]; Patient 05) was 2.85 % dose. For the same compound, the “% of dose in pooled urine, Patient 06” value ([1]; Patient 06) was 5.96 % dose, the “% of dose in pooled urine, Patient 08” value ([1]; Patient 08) was 10.7 % dose and the “% of dose in pooled urine, Patient 09” value ([1]; Patient 09) was 6.77 % dose. The “% Peak (of TRA) in urine” value ([1]; pooled urine covering 90% of urine radioactivity, N = 6, mean ± SD) was 44.9 ± 15.6%, the “% Dose in urine” value ([1]; N = 6, mean ± SD) was 7.59 ± 4.16% and the “% Dose in urine” value [1, 4] was “≈ 7.6% and > 7%”. For the same compound, the “% of dose in pooled fecal homogenate, Patient 01” value ([2]; Patient 01) was 50.6 % dose, the “% of dose in pooled fecal homogenate, Patient 05” value ([2]; Patient 05) was 55.8 % dose and the “% of dose in pooled fecal homogenate, Patient 06” value ([2]; Patient 06) was 70.1 % dose. The “% of dose in pooled fecal homogenate, Patient 08” value ([2]; Patient 08) was 68.2 % dose, the “% of dose in pooled fecal homogenate, Patient 09” value ([2]; Patient 09) was 71.8 % dose and the “% Peak (of TRA) in feces” value ([2]; pooled fecal homogenate covering >90% of fecal excretion, N = 6, mean ± SD) was 94.9 ± 4.95%. For the same compound, the “% Dose in feces” value ([2]; N = 6, mean ± SD) was 63.9 ± 8.60%, the “% Dose in feces” value [2, 4] was 63.9% and ≈ 64% and the “Matrix in which identified” value [3] was “P, U, F”.
